Experimental data taken from the supplement of paper PMC8988213.
Structures can show the parent of a compound that is named as a salt.

Tests used:
[1] = test system: ID211 patient-derived PDAC 2D line (post-FOLFIRINOX); assay: normalised area under dose-response curve (viability relative to DMSO, 7 doses up to 10 µM) (fraction (AUC)); higher = less sensitive (more viability retained); conditions: 72 h; top dose: 10 µM
Summary of the method: (§1)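 2D PDAC cells grown out from patient-derived organoids were robotically seeded in 96-well plates at 1,500–3,000 cells/well and kept overnight at 37°C in 5% CO2. Compounds from a SelleckChem library were then applied for 72 h at seven concentrations, made as a 3-fold dilution series with 10 µM as the highest. CellTiter-Glo luminescence was measured 10 min later. Viability was normalised to control wells, and the GRmetrics R package was used to derive the area under the dose-response curve.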

[2] = test system: ID188 patient-derived PDAC 2D line (pre-FOLFIRINOX); assay: as above; conditions: 72 h; top dose: 10 µM
Summary of the method: as §1

Structure (SMILES) | normalised area under dose-response curve [1] | normalised area under dose-response curve [2]
CC(C)(O)CNc1ncc(-c2ccnc(Nc3ccnc(Cl)c3)n2)c(CC2CC2)n1 [VPS34-IN1] | 0.824 | 0.949
CC(C)(C)c1nc(-c2cccc(NS(=O)(=O)c3c(F)cccc3F)c2F)c(-c2ccnc(N)n2)s1 | 0.932 | 0.738
NC(=O)Nc1cc(-c2cccc(F)c2)sc1C(=O)N[C@H]1CCCNC1 [AZD7762] | 0.507 | 0.558
CCNC(=O)C#Cc1ccc2c(C(=Nc3ccc(CN(C)C)cc3)c3ccccc3)c(O)[nH]c2c1 | 0.264 | 0.621
COc1ccc(N(C(=O)Oc2c(C)cccc2C)c2ccnc(Nc3ccc(N4CCN(C)CC4)cc3)n2)c(OC)c1 [WH-4-023] | 0.935 | 0.929
Cc1ccc(-c2cc(C(F)(F)F)nn2-c2ccc(S(N)(=O)=O)cc2)cc1 [Celecoxib] | 0.892 | 0.935
CS(=O)(=O)CCNCc1ccc(-c2ccc3ncnc(Nc4ccc(OCc5cccc(F)c5)c(Cl)c4)c3c2)o1 | 0.614 | 0.924
Cn1cc(C2=C(c3ccc(Cl)cc3Cl)C(=O)NC2=O)c2ccccc21 | 0.787 | 0.813
CC(C(=O)Nc1cccc(/N=C/c2c(O)ccc3ccccc23)c1)c1ccccc1 (stereo not given) [Salermide] | 0.858 | 0.876
CN1CCN(c2ccc(C(=O)Nc3n[nH]c4ccc(Cc5cc(F)cc(F)c5)cc34)c(NC3CCOCC3)c2)CC1 [Entrectinib (RXDX-101)] | 0.706 | 0.813
NC(=O)/C(=C/n1cnc(-c2cc(C(F)(F)F)cc(C(F)(F)F)c2)n1)c1cncnc1 [Eltanexor (KPT-8602)] | 0.579 | 0.574
C=CC(=O)N1CC/C(=C\c2ccc(F)c([N+](=O)[O-])c2)C(=O)/C(=C/c2ccc(F)c([N+](=O)[O-])c2)C1 [VLX1570] | 0.243 | 0.602
CCCCCCCCCCCCc1ccc(S(=O)(=O)Nc2nncs2)cc1 [PHT-427] | 0.931 | 0.871
CNc1cc(-c2cccc(Cl)c2Cl)nc(N)n1 [TH287] | 0.901 | 0.896
Cc1cc(OCc2nnc(SC3CCCC3)n2-c2cccnc2)ccc1-c1ccc(S(C)(=O)=O)cc1 [NMS-873] | 0.406 | 0.8
NC(=O)[C@@H](CCC(F)(F)F)N(Cc1ccc(-c2ncon2)cc1F)S(=O)(=O)c1ccc(Cl)cc1 | 0.77 | 0.882
CNC(=O)c1ccc(Nc2ncc(C(F)(F)F)c(NCc3nccnc3N(C)S(C)(=O)=O)n2)cc1 | 0.761 | 0.897
NC1(c2ccc(-c3nc4ccn5c(=O)[nH]nc5c4cc3-c3ccccc3)cc2)CCC1 [MK-2206 2HCl] | 0.672 | 0.844
O=C(c1cc(Cc2n[nH]c(=O)c3ccccc23)ccc1F)N1CCN(C(=O)C2CC2)CC1 | 0.865 | 0.917
O=C(Nc1ccccc1-c1cn2c(CN3CCNCC3)csc2n1)c1cnc2ccccc2n1 [SRT1720 HCl] | 0.812 | 0.865
O=C(O)c1ccc(-c2c[nH]c3ncc(-c4ccccc4)cc23)cc1C1CCCC1 | 0.913 | 0.924
O=C(c1ccc(F)c(F)c1Nc1ccc(I)cc1F)N1CC(O)([C@@H]2CCCCN2)C1 [Cobimetinib (GDC-0973, RG7420)] | 0.26 | 0.639
Cc1ccc2nc(NCCN)c3ncc(C)n3c2c1 | 0.857 | 0.853

Structure (SMILES) | normalised area under dose-response curve [1] | normalised area under dose-response curve [2]
Nc1ccn([C@@H]2O[C@H](CO)[C@@H](O)C2(F)F)c(=O)n1 [Gemcitabine HCl] | 0.583 | 0.57
CCCS(=O)(=O)Nc1ccc(F)c(C(=O)c2c[nH]c3ncc(-c4ccc(Cl)cc4)cc23)c1F [Vemurafenib (PLX4032, RG7204)] | 0.883 | 0.813
C[C@@H]1COCCN1c1cc(C2([S@](C)(=N)=O)CC2)nc(-c2cc[nH]c3nccc2-3)n1 [AZD6738] | 0.749 | 0.805
CC(C)N(C[C@H]1O[C@@H](n2cnc3c(N)ncnc32)[C@H](O)[C@@H]1O)[C@H]1C[C@@H](CCc2nc3cc(C(C)(C)C)ccc3[nH]2)C1 [Pinometostat (EPZ5676)] | 0.8 | 0.916
CC(C)n1nc(-c2ccc3oc(N)nc3c2)c2c(N)ncnc21 [Sapanisertib (INK 128, MLN0128)] | 0.389 | 0.541
COc1cc(OC)c2c(=O)[nH]c(-c3cc(C)c(OCCO)c(C)c3)nc2c1 [Apabetalone (RVX-208)] | 0.837 | 0.949
Cc1ccc(F)c(NC(=O)Nc2ccc(-c3cccc4[nH]nc(N)c34)cc2)c1 [Linifanib (ABT-869)] | 0.814 | 0.889
Cn1cc(-c2ccc3nnc(Sc4ccc5ncccc5c4)n3n2)cn1 [SGX-523] | 0.941 | 0.983
CCOc1cc2ncc(C#N)c(Nc3ccc(F)c(Cl)c3)c2cc1NC(=O)/C=C/CN(C)C [Pelitinib (EKB-569)] | 0.631 | 0.846
CC(C)(C)S(=O)(=O)c1ccc2nccc(Nc3n[nH]c4ccc(F)cc34)c2c1 [GSK583] | 0.893 | 0.9
CC(=O)O[C@H]1C(=O)[C@@]2(C)[C@H]([C@H](OC(=O)c3ccccc3)[C@]3(O)C[C@H](OC(=O)[C@H](O)[C@@H](NC(=O)c4ccccc4)c4ccccc4)C(C)=C1C3(C)C)[C@]1(OC(C)=O)CO[C@@H]1C[C@@H]2O [Paclitaxel] | 0.444 | 0.432
CC(C)(C)c1cc(NC(=O)Nc2ccc(-c3cn4c(n3)sc3cc(OCCN5CCOCC5)ccc34)cc2)no1 [Quizartinib (AC220)] | 0.809 | 0.974
COCCOc1ccc2c(c1)ncn2-c1ccc2cccc(N3CCC(N)CC3)c2n1 | 1.03 | 0.974
Cc1ccc(NC(=O)c2ccc(CN3CCN(C)CC3)cc2)cc1Nc1nc(-c2cccnc2)cs1 [Masitinib (AB1010)] | 0.83 | 0.959
CNC(=O)[C@H](Cc1c[nH]c2ccccc12)NC(=O)[C@@H](CC(=O)NO)CC(C)C [Ilomastat (GM6001, Galardin)] | 0.809 | 1.05
Cn1cnc2c(F)c(Nc3ccc(Br)cc3Cl)c(C(=O)NOCCO)cc21 [Selumetinib (AZD6244)] | 0.492 | 0.676
Cc1cc2c(C(N)=O)cccc2n1-c1nc2c(c(NCc3ccccc3)n1)COCC2 [CB-5083] | 0.643 | 1.01
O=S(=O)(O)c1ccc2cc(N=Nc3cc(S(=O)(=O)O)c4cccnc4c3O)ccc2c1 | 0.831 | 0.938
CONC(=O)c1ccccc1Nc1cc(Nc2cc(C)nn2C(C)C)ncc1Cl | 0.844 | 0.812
COc1ccc(-c2cc3nccn3c(Nc3ncccc3C(N)=O)n2)cc1OC [BAY-61-3606] | 0.79 | 0.871
Cc1cc(-c2nc(-c3ccc(OC(F)(F)F)cc3)no2)nn1Cc1ccnc(N2CCN(C3CC3)CC2)c1 [BAY 87-2243] | 0.794 | 0.574
Cc1ccc(S(=O)(=O)Cc2nc(-c3ccc(C(=O)NCc4cccnc4)cc3)oc2C)cc1 | 0.275 | 0.358
